Paper PMC10993414, “Water Quality Monitoring with the Multiplexed Assay MitoOxTox for Mitochondrial Toxicity, Oxidative Stress Response, and Cytotoxicity in AREc32 Cells” (Environmental Science & Technology, 2024)
Where two headings read alike, the source gives them in different places.

Tests used:
AREc32 cells [1] = tested on: AREc32 cells
[2] = tested on: mitochondrial membrane potential (MMP) in AREc32 cells
[3] = tested on: mitochondrial membrane potential (MMP) in AREc32 cells; assay: Disruption of mitochondrial membrane potential (m-MPI red/green ratio), MitoOxTox; conditions: for MMP inhibition activity (in words): MitoOxTox, AREc32; for EC10: MMP, AREc32, 24 h
[4] = experimental; ref PhysPropNCCT; cited from earlier work
[5] = tested on: Nrf2-mediated oxidative stress response pathway (ARE) in AREc32 cells; assay: cells; conditions: Arec32, 24 h, read-out: Oxidative stress response ECIR1.5 (M)
[6] = tested on: Nrf2-mediated oxidative stress response pathway (ARE) in AREc32 cells
AREc32 cells [7] = tested on: AREc32 cells; remark: listed apart in the source
AREc32 cells [8] = assay: Cytotoxicity (cell confluency) with IncuCyte S3 live cell imaging, MitoOxTox; conditions: AREc32, 24 h exposure; for Cytotoxicity Incucyte IC10: 10% reduction in cell viability
AREc32 cells [9] = assay: Cytotoxicity with ImageXpress high-content imaging, MitoOxTox; conditions: AREc32, 24 h exposure; for Cytotoxicity ImageExpress IC10: 10% reduction in cell viability; for Cytotoxicity ImageExpress log(IC10 (M)): logarithm of IC10, Corning plates
[10] = tested on: mitochondrial membrane potential (MMP) in HepG2 cells; conditions: cited from earlier work; for MMP inhibition activity (in words): Tox21 MMP assay, HepG2
[11] = ref Cessna et al. 1978; cited from earlier work
[12] = tested on: oxidative stress response in AREc32 cells; parameters: method as in Escher et al. 42; conditions: original AREc32 reporter gene assay; ref Escher et al. 42; cited from earlier work
[13] = 10% reduction of MMP, AREc32, 24 h exposure
[14] = logarithm of EC10, AREc32, 24 h exposure
[15] = effect concentration leading to induction ratio 1.5, AREc32, 24 h exposure

O=[N+]([O-])c1ccc(O)c([N+](=O)[O-])c1 [2,4-Dinitrophenol]
Cytotoxicity ImageExpress IC10 (AREc32 cells [1]; human): 426 µM | Cytotoxicity ImageExpress log(IC10 (M)) (AREc32 cells [1]; human): -3.37 M | SRcytotoxicity ([2]; human): 35.1 | MMP inhibition EC10 [3, 13]: 12.1 µM | MMP inhibition log(EC10 (M)) [3, 14]: -4.92 M | log Kow [L/L] [4]: 1.67 L/L | EC (induction ratio 1.5) [5]: 0.000156 M | activation of the oxidative stress response (in words) ([6]; AREc32): activated | Cytotoxicity Incucyte IC10 (AREc32 cells [7]; human): 281 µM

CO/C=C(/C(=O)OC)c1ccccc1Oc1cc(Oc2ccccc2C#N)ncn1 [Azoxystrobin]
Cytotoxicity Incucyte IC10 (AREc32 cells [8]): > 105 µM | Cytotoxicity Incucyte log(IC10 (M)) (AREc32 cells [8]; logarithm of IC10, Corning plates): no cytotoxicity | MMP inhibition EC10 [3, 13]: 15.9 µM | MMP inhibition log(EC10 (M)) [3, 14]: -4.80 M | Cytotoxicity ImageExpress IC10 (AREc32 cells [9]): > 105 µM | Cytotoxicity ImageExpress log(IC10 (M)) (AREc32 cells [9]): no cytotoxicity | log Kow [L/L] [4]: 2.50 L/L | Oxidative stress response ECIR1.5 [6, 15]: > 105 µM

O=C(Nc1ccccc1-c1ccc(Cl)cc1)c1cccnc1Cl [Boscalid]
Cytotoxicity ImageExpress log(IC10 (M)) (AREc32 cells [1]): no cytotoxicity | Cytotoxicity ImageExpress IC10 (AREc32 cells [1]; human, 24 h): > 83.2 µM | MMP inhibition EC10 [3, 13]: > 83.2 µM | MMP inhibition EC10 (M) ([3]; 10% reduction of MMP, AREc32, 24 h exposure, listed as boscalid): > 8.32 × 10^–5 M | MMP inhibition activity (in words) [3]: inactive | MMP inhibition log(EC10 (M)) [3, 14]: no Effect | log Kow [L/L] [4]: 2.96 L/L | MMP inhibition activity (in words) [10]: inactive | EC (induction ratio 1.5) [5]: > 8.32e-05 M | Cytotoxicity Incucyte log(IC10 (M)) (AREc32 cells [7]): no cytotoxicity | Cytotoxicity Incucyte IC10 (AREc32 cells [7]; human, 24 h): > 83.2 µM

N#Cc1cc(Br)c(O)c(Br)c1 [Bromoxynil]
pKa (Acid) [11]: 4.21 | MMP inhibition EC10 [3, 13]: 21.9 µM | MMP inhibition log(EC10 (M)) [3, 14]: -4.66 M

CC1=C(C(=O)Nc2ccccc2)SCCO1 [Carboxin]
Cytotoxicity ImageExpress log(IC10 (M)) (AREc32 cells [1]): no cytotoxicity | Cytotoxicity ImageExpress IC10 (AREc32 cells [1]; human, 24 h): > 429 µM | MMP inhibition EC10 [3, 13]: 152 µM | EC10 [3]: 152 µM | MMP inhibition log(EC10 (M)) [3, 14]: -3.82 M | log Kow [L/L] [4]: 2.14 L/L | EC (induction ratio 1.5) [5]: 0.00014 M | activation of the oxidative stress response (in words) ([6]; AREc32): activated | Cytotoxicity Incucyte IC10 (AREc32 cells [7]; human, 24 h): 1080 µM

CNC(=O)/C(=N/OC)c1ccccc1COc1cc(C)ccc1C [Dimoxystrobin]
Cytotoxicity ImageExpress IC10 (AREc32 cells [1]): 142 µM | Cytotoxicity ImageExpress log(IC10 (M)) (AREc32 cells [1]): -3.85 M | SRcytotoxicity [2]: 324 | MMP inhibition EC10 [3, 13]: 0.439 µM | MMP inhibition log(EC10 (M)) [3, 14]: -6.36 M | Oxidative stress response ECIR1.5 [6, 15]: > 206 µM | Cytotoxicity Incucyte IC10 (AREc32 cells [7]): 129 µM

CC(C)(C)c1ccc(CCOc2ncnc3ccccc23)cc1 [Fenazaquin]
Cytotoxicity Incucyte IC10 (AREc32 cells [8]): 100 µM | SRcytotoxicity ([2]; human): 9356 | MMP inhibition EC10 [3, 13]: 0.0118 µM | MMP inhibition activity (in words) [3]: active | MMP inhibition log(EC10 (M)) [3, 14]: -7.93 M | Cytotoxicity ImageExpress IC10 (AREc32 cells [9]): 110 µM | Cytotoxicity ImageExpress log(IC10 (M)) (AREc32 cells [9]): -3.96 M | log Kow [L/L] [4]: 5.51 L/L | MMP inhibition activity (in words) [10]: only active in the MitoOxTox assay | EC (induction ratio 1.5) [5]: > 0.000314 M

CC(C)Oc1cccc(NC(=O)c2ccccc2C(F)(F)F)c1 [Flutolanil]
Cytotoxicity ImageExpress IC10 (AREc32 cells [1]; human): 138 µM | Cytotoxicity ImageExpress log(IC10 (M)) (AREc32 cells [1]; human): -3.86 M | SRcytotoxicity ([2]; human): 5.5 | MMP inhibition EC10 [3, 13]: 25.2 µM | MMP inhibition log(EC10 (M)) [3, 14]: -4.60 M | log Kow [L/L] [4]: 3.7 L/L | EC (induction ratio 1.5) [5]: > 0.000226 M | Cytotoxicity Incucyte IC10 (AREc32 cells [7]; human): 106 µM

Oc1c(Cl)cc(Cl)c(Cl)c1Cc1c(O)c(Cl)cc(Cl)c1Cl [Hexachlorophene]
Cytotoxicity ImageExpress IC10 (AREc32 cells [1]; human): 10.7 µM | Cytotoxicity ImageExpress log(IC10 (M)) (AREc32 cells [1]; human): -4.97 M | SRcytotoxicity ([2]; human): 38.6 | MMP inhibition EC10 [3]: 0.276 µM | MMP inhibition log(EC10 (M)) [3]: -6.56 M | EC (induction ratio 1.5) [5]: > 9.31e-05 M | Cytotoxicity Incucyte IC10 (AREc32 cells [7]; human): 5.46 µM

Oc1c(Cl)c(Cl)c(Cl)c(Cl)c1Cl [Pentachlorophenol]
Cytotoxicity ImageExpress IC10 (AREc32 cells [1]; human): 74.4 µM | Cytotoxicity ImageExpress log(IC10 (M)) (AREc32 cells [1]; human): -4.13 M | SRcytotoxicity ([2]; human): 6.6 | MMP inhibition EC10 [3]: 11.2 µM | MMP inhibition log(EC10 (M)) [3]: -4.95 M | EC (induction ratio 1.5) [5]: 6.91e-05 M | activation of the oxidative stress response (in words) [6]: activated | SRcytotoxicity (oxidative stress response) ([6]; human): 6.6 | Cytotoxicity Incucyte IC10 (AREc32 cells [7]; human): 67.9 µM

CO/C=C(/C(=O)OC)c1ccccc1COc1cccc(C(F)(F)F)n1 [Picoxystrobin]
Cytotoxicity Incucyte IC10 (AREc32 cells [8]): 77.7 µM | SRcytotoxicity [2]: 59.5 | MMP inhibition EC10 [3, 13]: 1.35 µM | MMP inhibition log(EC10 (M)) [3, 14]: -5.87 M | Cytotoxicity ImageExpress IC10 (AREc32 cells [9]): 80.1 µM | Cytotoxicity ImageExpress log(IC10 (M)) (AREc32 cells [9]): -4.10 M | Oxidative stress response ECIR1.5 [6, 15]: > 139 µM

C=C(C)[C@H]1Cc2c(ccc3c2O[C@@H]2COc4cc(OC)c(OC)cc4[C@@H]2C3=O)O1 [Rotenone]
Cytotoxicity ImageExpress IC10 (AREc32 cells [1]; human): 0.242 µM | Cytotoxicity ImageExpress log(IC10 (M)) (AREc32 cells [1]; human): -6.62 M | SRcytotoxicity ([2]; human): 46 | MMP inhibition EC10 [3, 13]: 0.00531 µM | MMP inhibition log(EC10 (M)) [3, 14]: -8.27 M | log Kow [L/L] [4]: 4.1 L/L | EC (induction ratio 1.5) [5]: > 6.57e-07 M | Cytotoxicity Incucyte IC10 (AREc32 cells [7]; human): 0.212 µM

CCC/C=C/C=C/C(=O)O[C@H]1/C(=C/C(=O)OC)C[C@H]2C[C@H]([C@@H](C)O)OC(=O)C[C@H](O)C[C@@H]3C[C@H](OC(C)=O)C(C)(C)[C@](O)(C[C@@H]4C/C(=C/C(=O)OC)C[C@H](/C=C/C(C)(C)[C@]1(O)O2)O4)O3 [bryostatin 1]
EC50 ([10]; HepG2 cells, 1 h of exposure, read-out: EC50 (decrease of MMP)): 0.0096 µM

CC(C)(C)c1cc(O)ccc1O [tBHQ, tert-butylhydroquinone]
ECIR1.5 [12]: 1.32 µM | ECIR1.5 ([6]; current study, multiplexed MitoOxTox, AREc32): 3.14 µM

Oligomycin A
MMP inhibition EC10 [3, 13]: 0.000235 µM | EC10 [3]: 0.00024 µM | MMP inhibition log(EC10 (M)) [3, 14]: -9.63 M | Oxidative stress response ECIR1.5 [6, 15]: > 12.7 µM

Tributyltin chloride
MMP inhibition EC10 [3]: 0.0145 µM | MMP inhibition log(EC10 (M)) [3]: -7.84 M | Oxidative stress response ECIR1.5 [6]: > 1.23 µM
